# Test results: patent US20150157575A1, “Pharmaceutical Formulations Comprising Vilazodone” (Forest Laboratories Holdings Ltd., priority 2013, published 2015)
# Where two headings read alike, the source gives them in different places.
# How the values were obtained:
# [1] = In vitro dissolution, USP apparatus 2 (paddle); assay type: physicochemical; conditions: at first 30 minutes; FIGS. 4-6
# Protocol: In the dissolution testing guideline for immediate release profiles, material dissolves over a period of time, and its dissolution is measured at given intervals during this period. A minimum of three time points is recommended and generally cover early, middle and late stages of the dissolution profile. […] In presence of minor changes to the drug dosage forms, a single point dissolution test may be adequate to ensure product dosing compliance. For major changes, a dissolution profile comparison performed under identical conditions for the product before and after the changes(s) is recommended. […] The term “similarity factor” or F2 factor as used herein refers to one way of comparing dissolution profiles of two different products. (Multisource Pharmaceutical Products: Guidelines on Registration Requirements to establish Interchangeability, Quality Assurance and Safety: Medicines, Essential Drugs and Medicines Policy, World Health Organization, 1211 Geneva 27, Switzerland). This model independent mathematical approach compares the dissolution profile of the two products: test and reference (or two strengths, or pre- and post-approved products from the same manufacturer) and calculates percent (%) difference between two curves at each time point and measures the relative error between two curves. Tests are recommended to be performed under the same test conditions. […]
# [2] = Study 2: single-dose pharmacokinetics in severe hepatic impairment and matched healthy controls; conditions: for AUC(0-t) / AUC(0-inf) / Cmax / Tmax / half-life: both, human, po, 20 mg; for AUC(0-inf): AUC0-∞; for AUC(0-inf) / Cmax / Tmax / half-life: vilazodone 20 mg single oral dose
# Protocol: The pharmacokinetics, tolerability, and safety of vilazodone were investigated in two separate trials involving participants with hepatic impairment, compared with healthy controls. An Open-label, parallel-group, single-dose pharmacokinetic studies, a single, oral dose of vilazodone (20 mg with increased hardness) was administered to participants with mild, moderate, or severe hepatic impairment or individually matched controls. Outcomes included pharmacokinetic parameters and safety (vital signs, clinical laboratory evaluations, ECG, and adverse events [AEs]). Plasma samples were analyzed using validated LC/MS/MS methods.
# Data from two, open-label, parallel-group, single-dose pharmacokinetic studies investigated single-dose vilazodone (20 mg with increased hardness) in participants with hepatic impairment and normal hepatic function. The first study (Study 1) included participants with mild or moderate hepatic impairment and healthy controls. The second study (Study 2) included participants with severe hepatic impairment or healthy participants. These studies were both designed in accordance with the FDA guidance for evaluation of pharmacokinetics in the presence of hepatic impairment. The differences between the study protocols were minimal, so both methodologies are described together, with any differences noted below.
# Participants were men and women, 18 to 70 years of age, with a body mass index (BMI) of 18-42 kg/m^2. Women were not pregnant or breastfeeding and agreed to utilize a medically accepted form of contraception during the study (as did men in Study 2). In Study 2, participants were also required to be non-smokers or light smokers (fewer than 10 cigarettes per day; there was no stipulation in Study 1) and to have a sitting pulse rate of 50-100 bpm at screening and prior to dosing on Day 1. […] Each healthy control was matched with a hepatically impaired participant. Control participants in the Study 1 were matched with a hepatically impaired individual according to age (±10 years), sex, and BMI (±15%). Control participants in Study 2 were matched with a hepatically impaired individual according to age (±5 years), sex, and weight (±10%).
# Participants with hepatic dysfunction were classified according to the Child-Pugh hepatic dysfunction staging system as having mild (5-6 points) or moderate (7-9 points) hepatic impairment (Study 1), or severe impairment (10-15 points; Study 2). Participants with severe impairment also had chronic liver disease and/or compensated cirrhosis, as evidenced by liver biopsy, computerized tomography or ultrasonic evidence of hepatic fibrosis, clinical evidence of chronic liver disease, or a colloid shift on a liver-spleen scan. Exclusion criteria included the following: a clinical diagnosis or history of depression; treatment with antidepressants, anxiolytics, psychoactive medications (including herbal supplements), other serotonergic drugs, or drugs that inhibit CYP3A4 (eg, ketoconazole, diltiazem, macrolide antibiotics); a hypersensitivity to vilazodone or other SSRIs or 5-HT agonists; history or evidence of alcohol or substance abuse, cancer, human immunodeficiency virus, hepatitis B (Study 1 and healthy controls, both studies) hepatitis C (healthy controls, both studies), or other clinically significant illnesses or medical conditions. Participants with severe hepatic impairment were excluded if they had bleeding diathesis, advanced ascites requiring large-volume paracentesis within 1 week of dosing, esophageal bleeding within the previous 8 weeks, history of portosystemic shunt or hepatic transplant, or evidence of hepatic encephalopathy, hepatorenal syndrome, or other evidence of rapid hepatic deterioration.
# Participants were not allowed to have previously taken vilazodone or participated in any clinical investigation requiring repeated blood draws within 60 days of dosing, or donated blood or plasma within 60 or 30 days, respectively.
# plasma proteins = assay: Vilazodone protein binding by equilibrium dialysis (Studies 1 and 2); assay type: in vitro ADME; conditions: both sexes, human, plasma of study participants, read-out: mean percent free fraction in plasma
# Protocol: In both studies, additional samples (6 mL each) were collected to determine vilazodone protein binding: in Study 1, these samples were collected in duplicate at predose hour 0 and postdose hours 6 and 12; in Study 2, the samples were collected at predose hour 0 and postdose hours 4 and 12, with an additional sample (13 mL) collected at hour 0 for the determination of albumin concentration.
# The plasma concentrations of vilazodone (Studies 1 and 2) and its metabolite M17 (Study 2), vilazodone concentrations in urine (Study 1), and protein binding were determined using liquid chromatography with tandem mass spectrometry (LC/MS/MS) methodologies that have been validated for the following ranges: plasma vilazodone, 0.75 to 250 ng/mL (Study 1) and 0.5 to 250 ng/mL (Study 2); plasma M17, 0.25-125 ng/mL; urine vilazodone, 1.0-200 ng/mL; vilazodone protein binding, high range (sample compartment) 2.7-108 ng/mL, low range (buffer compartment) 0.1-5.4 ng/mL. The extent of vilazodone binding to plasma proteins was determined using equilibrium dialysis.
# [3] = Hepatic impairment studies: safety assessments (AEs, ECG); assay type: in vivo, human; conditions: for diarrhea, participants: both studies
# Protocol: Safety assessments included vital signs, clinical laboratory evaluations, ECG, and the collection of adverse events (AEs). […] AEs were recorded at all study visits and as they were reported spontaneously by the participants, up to 30 days after the vilazodone dose. Participants were asked about their well-being at each visit.
# Safety assessments were summarized without statistical comparisons. The last assessment made before the first dose of study drug was used as a baseline for all subsequent analyses.
# serotonin reuptake site = serotonin reuptake site (Homo sapiens, UniProt P31645); conditions: cited from earlier work
# [4] = Severe impairment/control, 20 mg single dose, participants who vomited excluded
# [5] = plasma, Control matched to Severe Impairment n = 8
# [6] = plasma, Severe Impairment n = 4 (who did not vomit)
# [7] = group with severe hepatic impairment
# [8] = matched controls, 20 mg single dose
# serotonin reuptake site, sequence (P31645 whole entry): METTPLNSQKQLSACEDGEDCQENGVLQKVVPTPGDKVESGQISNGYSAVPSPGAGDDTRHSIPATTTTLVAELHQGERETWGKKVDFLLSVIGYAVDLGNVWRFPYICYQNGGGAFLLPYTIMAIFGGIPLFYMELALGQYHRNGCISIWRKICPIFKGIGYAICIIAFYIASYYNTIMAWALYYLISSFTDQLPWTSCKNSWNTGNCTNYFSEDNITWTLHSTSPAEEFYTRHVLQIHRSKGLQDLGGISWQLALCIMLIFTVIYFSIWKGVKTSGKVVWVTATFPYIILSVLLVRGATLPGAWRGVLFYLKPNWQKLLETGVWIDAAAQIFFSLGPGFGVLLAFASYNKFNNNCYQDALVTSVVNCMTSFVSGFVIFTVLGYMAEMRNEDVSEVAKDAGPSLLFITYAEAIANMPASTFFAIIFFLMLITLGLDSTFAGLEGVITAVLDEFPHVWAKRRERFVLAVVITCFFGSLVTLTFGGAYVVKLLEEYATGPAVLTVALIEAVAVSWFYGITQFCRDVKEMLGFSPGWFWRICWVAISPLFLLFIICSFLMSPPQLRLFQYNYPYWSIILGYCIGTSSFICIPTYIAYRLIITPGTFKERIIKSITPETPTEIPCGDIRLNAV
smiles,measurement,setting,value
"Cl.N#Cc1ccc2[nH]cc(CCCCN3CCN(c4ccc5oc(C(N)=O)cc5c4)CC3)c2c1 [Vilazodone, 1-[4-(5-cyanoindol-3-yl)butyl]-4-(2-carbamoyl-benzofuran-5-yl)-piperazine hydrochloride]",vilazodone HCl released,[1],80%
same,"AUC0-t, Ratio of Geometric Means (%)",[2]; [4],96.9%
same,"AUC0-∞, Ratio of Geometric Means (%)",[2]; [4],95.8%
same,"Cmax, Ratio of Geometric Means (%)",[2]; [4],75.2%
same,AUC(0-t),[2]; in vivo,0.642 ± 0.0969 µg·h/mL
same,AUC(0-t),[2]; plasma,0.694 ± 0.262 µg·h/mL
same,AUC(0-inf),[2]; [5],0.731 ± 0.267 µg·h/mL
same,AUC(0-inf),[2]; [6],0.67 ± 0.0948 µg·h/mL
same,Cmax,[2]; [5],0.035 ± 0.0118 µg/mL
same,Cmax,[2]; [6],0.0253 ± 0.0038 µg/mL
same,Tmax,"[2]; plasma, Tmax (mean), Control matched to Severe Impairment n = 8",4.2 ± 1.3 h
same,Tmax,"[2]; plasma, Tmax (mean), Severe Impairment n = 4 (who did not vomit)",4.8 ± 2.2 h
same,Tmax,"[2]; plasma, Tmax, Median, Control matched to Severe Impairment n = 8",4.5 h
same,Tmax,"[2]; plasma, Tmax, Median, Severe Impairment n = 4 (who did not vomit)",4 h
same,half-life,"[2]; plasma, t1/2, Control matched to Severe Impairment n = 8",30.1 ± 13.8 h
same,half-life,"[2]; plasma, t1/2, Severe Impairment n = 4 (who did not vomit)",29.8 ± 4.8 h
same,mean Cmax lower than in healthy controls,"[2]; severe hepatic impairment vs healthy controls, 20 mg single dose",approximately 25%
same,Mean unbound drug clearance (CLu/F) lower vs matched controls,[2]; severe impairment group,33%
same,fraction unbound,plasma proteins; all participants with severe hepatic impairment,0.0224
same,fraction unbound,plasma proteins; healthy controls,0.01 to 0.014
same,fraction unbound,plasma proteins; participants with mild or moderate hepatic impairment,0.016
same,fraction unbound,plasma proteins; participants with severe hepatic impairment who did not vomit,0.0213
same,"decrease in QT interval (mean, screening to end of study)",[3]; [7],14.9 ms
same,"increase in QTcB interval (Bazett formula; mean, screening to end of study)",[3]; [7],8.7 ms
same,"deaths, serious AEs, discontinuations due to an AE","[3]; hepatic impairment studies, 20 mg single dose","No deaths, serious AEs, or discontinuations due to an AE"
same,"diarrhea, participants",[3]; [8],5 participants
same,"vomiting, participants",[3]; [8],0 participants
same,"vomiting, participants","[3]; participants with hepatic impairment (all severe), 20 mg single dose",4 participants
same,"diarrhea, participants","[3]; participants with hepatic impairment, 20 mg single dose",10 participants
same,binding affinity to serotonin reuptake site,serotonin reuptake site,high affinity
